Measured values taken from patent US12583895B2, “Polypeptides for restoring endothelial function and methods of use thereof” (Vanderbilt University, priority 2019, dated 2026).
Non-standard residues stand in square brackets, D forms with d. No end group written: not given here. pS = N[C@@H](COP(=O)(O)O)C(=O)O

Experiments:
[1] = molecular target: p38 MAPKα (MAPK14) (Homo sapiens, UniProt Q16539); test: SelectScreen kinase profiling; format: biochemical; conditions: peptide 100 μM, single concentration
Description: FIGS. 14A and 14B show kinase profiling of polypeptides. NiPp, scr3NiPp, and NiPp3 were profiled against 490 kinases at 100 uM using the SelectScreen Kinase Profiling Service (www.thermofisher.com). […] NiPp inhibits MSK1 and p38MAPK alpha by >60%. These two kinases are central to the p38MAPK kinase signaling cascade that play important roles in stress and inflammatory responses. NiPp-specific inhibitory activity to p38 MAPK were not detected for NiPp3 (non-phosphorylated) or scr3NiPp (scrambled) polypeptides.
Kinase profiling. NiPp was dissolved in DMSO, screened at a single concentration of 100 μM using in vitro kinase assays (SelectScreen Kinase Profiling Service; ThermoFisher Scientific, Madison WI) including the Z'LYTE and Adapta kinase activity assays and the LanthaScreen Eu Kinase Binding Assay). Candidate interactions were predicted using STRING Version 11 (www.string-db-org) with the human database at confidence=0.7.
As injury leads to increased p38 MAPK phosphorylation and decreased Niban phosphorylation, one of the mechanisms by which NiPp restores function after endothelial injury can be kinase inhibition. A kinase profiling was performed using three different profiling platforms that measure activity and kinase/substrate binding. […]

[2] = tested on: rat aorta; test: Endothelial-dependent relaxation of rat aorta after subfailure stretch injury, muscle bath; format: cell-based; conditions: stretch about 2 times resting length, peptide 500 μM, 1 hour, room temperature
Description: Freshly isolated rat aorta (RA) was subjected to subfailure stretch and incubated in PL in the absence (S) or presence of NiPp (500 μM) for 1 h at room temperature. […] The percent relaxation was determined as a change to the maximal PE-induced contraction. n=5 rats; #p<0.05, two-way ANOVA. […] Quantification of relative phosphorylation to total p38MAPK level is shown. N=10. *p<0.05, in one-way ANOVA with Tukey post-test. NiPp restores endothelial dysfunction and reduced p38 MAPK phosphorylation induced by stretch injury in RA.
Freshly isolated rat aorta was subjected to subfailure stretch (to haptic endpoint, approximately 2 times the resting length) and treated with NiPp, NiPp3, or scr3NiPp (500 μM) for 1 hour at room temperature. To determine the effect of injury on endothelial function, phenylephrine-precontracted tissues were treated with carbachol (CCH; 10^−8 to 10^−5M) and the percent relaxation was determined as a change to the maximal PE-induced contraction. Data are reported as mean responses±standard deviation. n=8. *p<0.05, two-way ANOVA with Tukey post-tests. There were significant differences between Stretch (S) vs. ctrl or NiPp-treated RA.
Measurement of endothelial-dependent relaxation. Rings of HSV or RA (1-2 mm) were suspended in a muscle bath containing a bicarbonate buffer (120 mM sodium chloride, 4.7 mM potassium chloride, 1.0 mM magnesium sulfate, 1.0 mM monosodium phosphate, 10 mM glucose, 1.5 mM calcium chloride, and 25 mM sodium bicarbonate, pH 7.4) equilibrated with 95% O2/5% CO2 at 37° C. for 1 h at a resting tension of 1 g, manually stretched to three times the resting tension, and maintained at resting tension for an additional 1 h.
This produced the maximal force tension relationship as previously described. […] Contractile responses were defined by stress, calculated using force generated by tissues as follows: stress (×10^5 N/m^2)=force (g)×0.0987/area, where area=wet weight (mg)/at maximal length (mm)]/1.055.
Relaxation was calculated as percent change in stress compared to the maximal PE-induced contraction (set as 100%). […]

p38 MAPKα (MAPK14), sequence (Q16539 whole entry): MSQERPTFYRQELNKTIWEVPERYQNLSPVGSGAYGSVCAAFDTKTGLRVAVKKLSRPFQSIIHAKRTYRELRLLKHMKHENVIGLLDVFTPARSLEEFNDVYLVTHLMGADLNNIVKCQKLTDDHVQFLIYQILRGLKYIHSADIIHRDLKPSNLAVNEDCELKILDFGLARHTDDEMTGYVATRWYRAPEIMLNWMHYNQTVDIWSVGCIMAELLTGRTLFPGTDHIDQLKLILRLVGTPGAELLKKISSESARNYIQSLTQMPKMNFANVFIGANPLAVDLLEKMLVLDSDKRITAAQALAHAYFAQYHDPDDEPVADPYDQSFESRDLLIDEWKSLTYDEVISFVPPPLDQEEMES

## YARAAARQARAAGSPPLA(pS)AIARR (YARAAARQARAAGSPPLA[pS]AIARR) [scr3NiPp]
[1]
  % inhibition of p38 MAPKα: not detected
[2]
  endothelial function (percent relaxation to carbachol) after subfailure stretch injury: did not restore

## YARAAARQARASPAARRA(pS)AILPG (YARAAARQARASPAARRA[pS]AILPG) [NiPp, Cell-permeant phosphopeptide mimetic of Niban: transduction domain … conjugated to the region surrounding serine 602 of Niban]
[2]
  endothelial function (percent relaxation to carbachol) after subfailure stretch injury: restores

## YARAAARQARASPAARRASAILPG (not fully specified (residue 19)) [NiPp3]
[1]
  % inhibition of p38 MAPKα: not detected
[2]
  endothelial function (percent relaxation to carbachol) after subfailure stretch injury: did not restore
